The source of these data is article PMC9381536, “Non-apoptotic cell death induction via sapogenin based supramolecular particles” (Scientific Reports, 2022).

A short description of data set [1]: Nile red staining (particle formation). It counts as physicochemical. To be noted: Nile red, PBS, 3 h. The method, then: AG-08 and AG were dissolved in DMSO as a 1000-fold concentrated stock added into the filtered PBS, which contain 2.5 µM Nile red. After 3 h incubation at room temperature, the fluorescence intensity was measured with a microplate reader (550 nm for excitation and 635 nm for the emission wavelength) (Varioscan, Thermo Fisher Scientific, US).

The nature of data set [2]: Measurement of particle diameter via Zeta Sizer. To be noted: PBS, DLS. Type of data set: physicochemical. As to the method:
AG-08 was dissolved in DMSO a 1000-fold concentrated stock and added into the filtered PBS. Then particle diameter was immediately measured via zeta-sizer (DLS–Particulate Systems). Measurement was repeated in triplicate.

The next data set concerns HCC1937 cells. The data set is described as follows: Cell viability with Tween 20 blocking particle formation. It counts as cell-based, Human. To be noted: HCC1937, 24 h. The method, then: Figure 1 AG-08 mediated cytotoxicity relies on the supramolecular structures. (A) Structure of AG-08. (B) The scanning transmission electron micrograph of 16 µM AG-08 in PBS. Figure is a representative image of stained sample with uranyl acetate (5683 × magnification; scale bar 600 nm). (C) After 3 h incubation of Nile red solution with AG-08 or AG, fluorescence intensity of Nile red was measured. (D) AG-08, Staurosporine (Sta) or vehicle samples prepared in the cell condition medium was filtrated by 220 nm filter and HCC1937 cells were exposed to the filtrates. After 24 h, the viability of cells was measured and represented as a percentage of that of the vehicle control. The error bars represent mean value ± s.d. (n = 3). *p < 0.05, **p < 0.005, ***p < 0.001. […] Cell viability was detected after 24 h incubation. […]
To verify that the activity of AG-08 arises from its supramolecular structures, freshly prepared AG-08 solutions were filtered using 220 nm-filters to remove AG-08 supramolecular particles from medium, and the filtrates were analyzed for their cytotoxicity. […]
Figure 5 The cytotoxic activity of analogs depends on particle formation like AG-08. […] The level of released LDH was calculated as fold change relative to vehicle. […] After 24 h, cell viability was measured. […] Cell viability after 24 h was measured. […]

A further data set relates to CHOP. The data set is described as follows: CHOP expression (immunoblot, q-RTPCR). It counts as cell-based. The source says: Figure 3 mRNA microarray analysis was used to identify differentially expressed genes via AG-08 treatment. (A) Heatmap representing the expressions of 193 genes with significant different expression in AG-08 treated cells compared with control. Heatmap was generated by GraphPad Prism version 8 (https://www.graphpad.com/scientific-software/prism/). (B) Protein–protein network analysis was formed via STRING. The thickness of the connecting lines indicates the strength of data support for physical and/or functional associations. (C) Pathway enrichment was determined using GO, KEGG, and Reactome pathway analysis. […] Size of circle represents the significance of enrichment. (D) The protein levels of CHOP were determined via IB. 0.5 µg/ml tunicamycin (Tun) was used as positive control. The experiments were repeated three times independently; with one representative result shown. (E) mRNA level of the CHOP was investigated using quantitative PCR (q-RTPCR). Error bars represent standard error (s.e.). p-values were calculated with respect to vehicle-treated cells by one-way Anova test. (**p < 0.005, ****p < 0.0001). (F) The expression and localization of Calnexin protein were evaluated using immunofluorescence via anti-Calnexin antibody (scale bar 25 µm).
The total RNA was isolated using Total RNA Isolation Kit (Bio-Rad, US) following the manufacturer’s instructions. cDNAs were synthesized using The iScript cDNA synthesis kit (Bio-Rad, US) according to the manufacturer’s instructions. To gene expression analysis, specific primers were designed against CHOP (forward: […], reverse: […] ). Quantitative RT-PCR (qRT-PCR) was performed using The SYBR Green I Mastermix (Bio-Rad, US) and LightCycler480 thermocycler (Roche). […] For relative quantification, reaction efficiency incorporated ΔΔCq formula was used. […]
Cell lysates were prepared by RIPA buffer (1XPBS, 1% nonidet P-40, 0.5% sodium deoxycholate, and 0.1% SDS, pH 8.0). Protein concentrations were determined by bicinchoninic acid (BCA) protein assay (Thermo Fisher Scientific, US). […]
(In general: In western blotting, separated proteins are transferred to a membrane and probed.)

The nature of data set [3]: Cytotoxic activity after freeze–thaw cycle. To be noted: solution, no change in chemical structure. It counts as cell-based.
In a further data set the test system is A549. More on the design: method as in PMID 33136369. To be noted: cited from earlier work.

In general, IC50 refers to the concentration at which inhibition is half-maximal. Regarding `Cc1ccc(S(=O)(=O)OC2CCC3(C)C4=CCC5(C)C(C6(C)CCC(C(C)(C)O)O6)C(O)CC5(C)C4C=CC3C2(C)C)cc1` (stereo not drawn) [AG-08], the critical assembly concentration entry in data set [1] was “approximately 2 µM”. Further, in data set [2], the “Diameter of supramolecular structures (hydrodynamic)” value came out at 153.2 ± 4.6. For the same compound, the polydispersity index in data set [2] was determined as 0.218. The “cell death in presence of Tween 20 (1:40,000)” value in the data set with HCC1937 cells is “inhibited”. In addition, the CHOP protein level entry in the data set on CHOP (8 µM) is “enhanced”; with CHOP (16 µM) it was “decreased”. In the data set with CHOP (AG-08 treated cells), the “CHOP (DDIT3) expression” value is “upregulated in a dose-dependent manner”. In addition, the “cytotoxic activity after one freeze–thaw cycle” value in data set [3] is recorded as “lost”. Moreover, the IC50 in the data set on A549 is 2300 nM.
